According to US20260216294A1, “BETA 2-ADRENERGIC RECEPTOR AGONISTS FOR TREATMENT OR PREVENTION OF MUSCLE WASTING” (ATROGI AB, priority 2023, published 2026):

What was measured:
L6-myotubes [1] = assay: Measurement of intracellular cAMP levels in differentiated L6-myotubes (Biological Example 3); type: cell-based; conditions: for intracellular cAMP levels: L6-myotubes, 15 min stimulation, compared with isoprenaline, FIGS. 2a-2d; for Emax at 10 µM: 0.25 h
Summary of the method: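 Intracellular cAMP quantified by AlphaScreen after ethanol extraction and lysis of L6 myotubes. Cells were serum-starved overnight, then exposed for 15 min to compound (final 1×10^−5 M) or isoprenaline in IBMX-containing (1 mM) HBSS buffer, pH 7.4.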

β2-adrenergic receptor [2] = biological target: T1, β2-adrenergic receptor (Homo sapiens, UniProt P07550); assay: β-arrestin 2 recruitment, Large BiT/Small BiT luciferase complementation in HEK293 cells (Biological Example 4); type: cell-based; conditions: luminescence after 31 min, compared with isoprenaline, FIGS. 3a-3c
T1 construct: expressed in transfected cells; host or cells: HEK293
T1 sequence (P07550 whole entry, species assumed): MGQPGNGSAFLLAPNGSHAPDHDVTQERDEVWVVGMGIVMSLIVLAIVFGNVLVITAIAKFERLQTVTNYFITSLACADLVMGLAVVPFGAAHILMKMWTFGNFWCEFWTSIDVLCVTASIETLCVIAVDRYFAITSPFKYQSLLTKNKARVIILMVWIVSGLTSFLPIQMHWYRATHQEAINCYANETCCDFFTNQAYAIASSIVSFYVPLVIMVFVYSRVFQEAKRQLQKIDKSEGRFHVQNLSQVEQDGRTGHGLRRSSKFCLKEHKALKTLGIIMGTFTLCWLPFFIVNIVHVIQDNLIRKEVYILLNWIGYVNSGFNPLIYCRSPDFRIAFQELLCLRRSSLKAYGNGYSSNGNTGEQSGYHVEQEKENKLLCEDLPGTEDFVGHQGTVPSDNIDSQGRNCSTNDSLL
Protocol: HEK293 cells are transfected with both the β2-adrenergic receptor attached with a Large BiT SNAP-tag protein, and with p-arrestin 2 attached to a Small BiT SNAP-tag protein. When cells are stimulated and the receptor recruits β-arrestin 2, the Small- and Large-BiT proteins merge, forming a functional luciferase enzyme, that in presence of furimazine generates light. After 31 min, the light is measured with a luminescence plate reader.

L6-myotubes [3] = assay: Glucose uptake in differentiated L6-myotubes (Biological Example 2); type: cell-based; conditions: for glucose uptake: L6-myotubes, FIGS. 2a-2d; for Emax at 10 µM: read-out: Biological example 2 (GU)
Summary of the method: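 Uptake was quantified as radioactivity in 0.2 M NaOH lysates after a 10 min pulse of 50 nM ^3H-2-deoxyglucose. The pulse followed two agonist exposures at 1×10^−5 M final (isoprenaline or test compound): 1 h 40 min, then 20 min in glucose-free medium after washing. L6 myotubes had been starved overnight in medium with 0.5% fatty-acid-free BSA.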

β2-adrenergic receptor [4] = biological target: T2, β2-adrenergic receptor (Rattus norvegicus, UniProt P10608); assay: Glucose uptake in the presence of the selective β2-adrenergic receptor antagonist ICI-118551 (Biological Example 1); type: cell-based; conditions: L6-myotubes; test compound 1×10^−5 M; different concentrations of ICI-118551; FIGS. 1a-1c
T2 construct: endogenous in cells; host or cells: L6 myoblasts differentiated into myotubes
T2 sequence (P10608 whole entry): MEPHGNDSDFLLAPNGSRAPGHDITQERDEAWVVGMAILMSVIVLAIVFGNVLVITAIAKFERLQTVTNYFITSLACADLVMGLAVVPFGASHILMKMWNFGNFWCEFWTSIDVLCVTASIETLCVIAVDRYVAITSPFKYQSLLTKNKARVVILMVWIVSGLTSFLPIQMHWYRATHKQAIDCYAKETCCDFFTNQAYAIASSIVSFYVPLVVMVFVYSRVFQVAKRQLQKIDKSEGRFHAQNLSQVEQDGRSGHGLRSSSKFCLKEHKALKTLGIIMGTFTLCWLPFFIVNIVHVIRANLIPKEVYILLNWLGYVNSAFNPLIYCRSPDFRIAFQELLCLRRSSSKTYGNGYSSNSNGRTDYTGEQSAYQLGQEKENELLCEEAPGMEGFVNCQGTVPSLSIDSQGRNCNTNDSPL
Protocol: L6-myoblasts were grown in Dulbecco's Modified Eagle's Medium (DMEM) containing 1 g/L glucose supplemented with 10% fetal bovine serum (FBS), 2 mM L-glutamine, 50 U/mL penicillin, 50 μg/mL streptomycin and 10 mM HEPES. Cells were plated at 1×10^5 cells per mL in 24-well plates. After reaching 90% confluence the cells were grown in medium containing 2% FBS for 7 days where upon cells differentiated into myotubes. The differentiated L6-myotubes were serum-starved overnight in medium containing 0.5% fatty-acid free BSA and stimulated with the test compound at a final concentration of 1×10^−5 M in the presence of different concentrations of the selective β2-adrenergic receptor antagonist ICI-118551. After 1 h 40 min the cells were washed with warm, glucose free medium twice and another portion of agonist was added to the glucose free medium. After another 20 min of incubation the cells were exposed to 50 nM ^3H-2-deoxyglucose for 10 min before washed in ice cold glucose free medium three times and lysed in 400 μL/well 0.2 M NaOH for 1 h at 60° C. The cell lysate was mixed with 4 ml scintillation buffer (Emulsifier Safe, Perkin Elmer) and the radioactivity was detected in a β-counter (Tri-Carb 4810TR, Perkin Elmer).

C57Bl/6 mice = assay: Body weight and lean mass in mice treated with dexamethasone (Biological Example 5); type: in vivo; conditions: male C57Bl/6 mice, daily s.c. for 3 weeks, dexamethasone sodium phosphate 10 mg/kg, Compound A 47.1 μmol/kg
Protocol: 40 eight-week-old male C57Bl/6 mice kept on standard chow diet were grouped-caged (2-3 mice per cage) at 21° C. The mice had similar body weight and body composition and were divided into four groups (n=10) and were treated daily with subcutaneous injections for 3 weeks with either dexamethasone sodium phosphate (10 mg/kg) or Compound A (47.1 μmol/kg (corresponding to dose 10 mg/kg of the free base)), or a combination of dexamethasone and Compound A. Control mice received saline. Body weight and lean mass were measured after 6, 12 and 20 days of treatment.

C57Bl/6N mice = assay: Combination of Compound C and liraglutide in mice on high-fat, high-sucrose diet (Biological Example 8); type: in vivo; conditions: diet-induced obese mice; daily s.c. for 2 weeks; liraglutide 0.1 mg/kg, Compound C 5 mg/kg; FIG. 12b
Protocol: 2.5 Months old male C57Bl/6N mice were grouped caged (4-5 mice per cage), kept at 30° C. and fed with high-fat, high-sucrose diet (45% fat) for 5 months. The mice were divided into four groups (2-3 mice per cage) according to their fasting blood glucose levels, glucose tolerance, body weight, body fat and lean mass, and treated daily for 2 weeks, subcutaneously with either vehicle, liraglutide (0.1 mg/kg), Compound C (5 mg/kg), or a mixture of liraglutide (0.1 mg/kg) and Compound C (5 mg/kg). Food intake and body weight were measured every other day; body fat and lean mass were measured weekly.

[5] = intracellular cAMP in differentiated L6-myotubes, compound at 10 μM, activity relative to isoproterenol at 10 μM
[6] = glucose uptake in differentiated L6-myotubes, compound at 10 μM, activity relative to isoproterenol at 10 μM
[7] = intracellular cAMP, compound at 10 μM relative to isoproterenol at 10 μM
[8] = glucose uptake, compound at 10 μM relative to isoproterenol at 10 μM

Q: How did the “intracellular cAMP levels” value (L6-myotubes [1]) turn out when `CC(C)(C)NC[C@H](O)c1cccc(F)c1.Cl` [Compound A, (R)-2-(tert-Butylamino)-1-(3-fluorophenyl)ethan-1-ol hydrochloride] was run?
A: The value was “low intracellular cAMP levels”.

Q: And the “β-arrestin 2 recruitment” value (β2-adrenergic receptor [2])?
A: Its value is “minimal p-arrestin 2 recruitment”.

Q: What about the glucose uptake (L6-myotubes [3]) of the same molecule?
A: Its glucose uptake is “full glucose uptake response”.

Q: What about the “glucose uptake promoted by the compound in the presence of ICI-118551” value (β2-adrenergic receptor [4]) of the same molecule?
A: The value was “inhibited in a dose-dependent manner”.

Q: And the body weight (C57Bl/6 mice; FIG. 4)?
A: Its body weight is “effect is reversed”.

Q: What about the lean mass (C57Bl/6 mice; FIG. 5) of the same molecule?
A: The lean mass was “effect is reversed”.

Q: What does the source list for `CC(C)(C)NC[C@H](O)c1ccc(F)c(N)c1F.O=C(O)/C=C\C(=O)O` [Compound C, (R)-1-(3-Amino-2,4-difluorophenyl)-2-(tert-butylamino)ethan-1-ol maleate]?
A: change in lean mass (C57Bl/6N mice): significantly lower as compared to administration of liraglutide alone; intracellular cAMP levels (L6-myotubes [1]): low intracellular cAMP levels; β-arrestin 2 recruitment (β2-adrenergic receptor [2]): minimal p-arrestin 2 recruitment; glucose uptake (L6-myotubes [3]): full glucose uptake response; glucose uptake promoted by the compound in the presence of ICI-118551 (β2-adrenergic receptor [4]): inhibited in a dose-dependent manner

Q: With `CC1(C)C[C@H]([C@@H](O)c2cccc(Cl)c2)N1` [Compound 233, (S)-[(R)-4,4-dimethyl-2-azetidinyl](m-chlorophenyl)methanol] as the molecule, how does the Emax at 10 µM (L6-myotubes [1]; [5]) read?
A: Its Emax at 10 µM is under 25%.

Q: And the Emax at 10 µM (L6-myotubes [3]; [6])?
A: Its Emax at 10 µM is under 25%.

Q: Which results are given for `COc1ccc(CC23CCC([C@@H](O)c4cccc(F)c4)(CC2)N3)cc1` [Compound 400, (S)-(m-fluorophenyl){4-[(p-methoxyphenyl)methyl]-7-azabicyclo[[2.2.1]]hept-1-yl}methanol]?
A: Emax at 10 µM (L6-myotubes [1]; [5]): < 25%; Emax at 10 µM (L6-myotubes [3]; [6]): 50 to 75%

Q: Which Emax at 10 µM (L6-myotubes [1]; [7]) does the source give for `CC1(C)CC[C@H]([C@H](O)c2cccc(Cl)c2)N1` [Compound 154, (R)-[(R)-5,5-dimethyl-2-pyrrolidinyl](m-chlorophenyl)methanol] here?
A: Its Emax at 10 µM is under 25%.

Q: What about the Emax at 10 µM (L6-myotubes [3]; [8]) of the same molecule?
A: The Emax at 10 µM was over 75%.

Q: For `O[C@@H](CNCC[C@H]1CC[C@H](O)CC1)c1cccc(F)c1` [Compound 298, (R)-1-(m-fluorophenyl)-2-{2-[(1r,4R)-4-hydroxycyclohexyl]ethylamino}-1-ethanol], which Emax at 10 µM (L6-myotubes [1]; [5]) is on record?
A: Its Emax at 10 µM is under 25%.

Q: What about the Emax at 10 µM (L6-myotubes [3]; [6]) of the same molecule?
A: Its Emax at 10 µM is 25 to 50%.

Q: For `CC(C)(C[C@H]1CC[C@H](NS(C)(=O)=O)CC1)NC[C@H](O)c1cncc(F)c1` [Compound 360, (R)-2-{1,1-dimethyl-2-[(1r,4R)-4-(mesylamino)cyclohexyl]ethylamino}-1-(5-fluoro-3-pyridyl)-1-ethanol], which Emax at 10 µM (L6-myotubes [1]; [5]) is on record?
A: The Emax at 10 µM was under 25%.

Q: And the Emax at 10 µM (L6-myotubes [3]; [6])?
A: Its Emax at 10 µM is over 75%.

Q: `CCC[C@H]1CCC[C@@H]([C@@H](O)c2cccc(O)c2)N1` [Compound 121] was tested. Which Emax at 10 µM (L6-myotubes [1]; [7]) did it give?
A: Its Emax at 10 µM is under 25%.

Q: What about the Emax at 10 µM (L6-myotubes [3]; [8]) of the same molecule?
A: The Emax at 10 µM was over 75%.

Q: `CCC[C@H]1CCC[C@@H]([C@@H](O)c2cccc(F)c2)N1` [Compound 119] was tested. Which Emax at 10 µM (L6-myotubes [1]; [7]) did it give?
A: Its Emax at 10 µM is under 25%.

Q: What about the Emax at 10 µM (L6-myotubes [3]; [8]) of the same molecule?
A: The Emax at 10 µM was 25 to 50%.

Q: Which Emax at 10 µM (L6-myotubes [1]; [7]) does the source give for `CCCCNCC(O)c1cc(F)cc(F)c1` (centres unmarked) [Compound 55, 2-(butylamino)-1-(3,5-difluorophenyl)-1-ethanol] here?
A: Its Emax at 10 µM is under 25%.

Q: And the Emax at 10 µM (L6-myotubes [3]; [8])?
A: The Emax at 10 µM was 50 to 75%.

Q: Which Emax at 10 µM (L6-myotubes [1]; [5]) does the source give for `CO[C@H]1CC[C@@H](CCC(C)(C)NC[C@H](O)c2cncc(F)c2)CC1` [Compound 266] here?
A: The Emax at 10 µM was under 25%.

Q: What about the Emax at 10 µM (L6-myotubes [3]; [6]) of the same molecule?
A: Its Emax at 10 µM is over 75%.

Q: With `CC(C)(C)NC[C@H](O)c1cncc(F)c1.O=C(O)C(O)C(O)C(=O)O` [Compound B, (R)-2-(tert-Butylamino)-1-(5-fluoropyridin-3-yl)ethan-1-ol hemi-tartrate] as the molecule, how does the “intracellular cAMP levels” value (L6-myotubes [1]) read?
A: Its value is “low intracellular cAMP levels”.

Q: What about the “β-arrestin 2 recruitment” value (β2-adrenergic receptor [2]) of the same molecule?
A: The value was “minimal p-arrestin 2 recruitment”.

Q: And the glucose uptake (L6-myotubes [3])?
A: Its glucose uptake is “full glucose uptake response”.

Q: What about the “glucose uptake promoted by the compound in the presence of ICI-118551” value (β2-adrenergic receptor [4]) of the same molecule?
A: The value was “inhibited in a dose-dependent manner”.

Q: With `CCC[C@@H]1CCC[C@@H]([C@H](O)c2cccc(F)c2)N1` [Compound 116] as the molecule, how does the Emax at 10 µM (L6-myotubes [1]; [7]) read?
A: Its Emax at 10 µM is under 25%.

Q: And the Emax at 10 µM (L6-myotubes [3]; [8])?
A: Its Emax at 10 µM is 25 to 50%.
